Source: patent publication US8785460B2, “Tricyclic compounds and use thereof” (Takeda Pharmaceutical Company Limited, priority 2008, dated 2014)

Columns and labels:
[1] = target: T1, human CRF1 receptor (Homo sapiens, UniProt P34998); test: Measurement of CRF Binding Inhibitory Rate (receptor binding experiment with 125I-CRF); details: human CRF1 receptor expressing CHO cellular membrane fraction, 50 pM 125I-CRF, room temperature 1.5 hr, 0.05 nM to 10 μM of compound; read-out: IC50 values (CRF binding inhibition)
T1 construct: expressed in transfected cells; host or cells: CHO cells (membrane fraction)
T1 sequence (P34998 24-415): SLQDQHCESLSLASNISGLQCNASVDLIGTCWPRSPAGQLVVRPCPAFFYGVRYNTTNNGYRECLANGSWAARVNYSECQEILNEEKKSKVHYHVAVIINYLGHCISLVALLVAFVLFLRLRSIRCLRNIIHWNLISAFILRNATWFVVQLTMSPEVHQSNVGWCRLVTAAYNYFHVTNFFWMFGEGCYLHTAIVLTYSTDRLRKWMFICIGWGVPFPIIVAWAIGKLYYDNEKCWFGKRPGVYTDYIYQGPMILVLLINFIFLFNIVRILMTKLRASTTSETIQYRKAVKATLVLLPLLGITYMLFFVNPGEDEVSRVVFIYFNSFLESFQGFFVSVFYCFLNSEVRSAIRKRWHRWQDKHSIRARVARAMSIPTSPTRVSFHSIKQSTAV

For CCC(CC)(OC)c1ccc(Cl)c2nc3n(c12)CCCN3c1ccc(Cl)cc1Cl [Example 110, 9-Chloro-1-(2,4-dichlorophenyl)-6-(1-ethyl-1-methoxypropyl)-1,2,3,4-tetrahydropyrimido[1,2-a]benzimidazole], the melting point was 124 to 125 °C and the IC50 [1] was < 1000 nM.
In the case of COC(c1ccc(Cl)c2nc3n(c12)CCCN3c1ccc(Cl)cc1Cl)(C1CC1)C1CC1 [Example 111, 9-Chloro-1-(2,4-dichlorophenyl)-6-[dicyclopropyl(methoxy)methyl]-1,2,3,4-tetrahydropyrimido[1,2-a]benzimidazole], the melting point is reported as 99 to 100 °C and the IC50 [1] is reported as < 1000 nM.
In the case of OC(c1ccc(Cl)c2nc3n(c12)CCCN3c1ccc(Cl)cc1Cl)C1CC1 (centres unmarked) [Example 113, [9-Chloro-1-(2,4-dichlorophenyl)-1,2,3,4-tetrahydropyrimido[1,2-a]benzimidazol-6-yl](cyclopropyl)methanol], the melting point is reported as 223 to 224 °C and the IC50 [1] is reported as < 1000 nM.
In the case of CCCC(O)c1ccc(Cl)c2nc3n(c12)CCCN3c1ccc(Cl)cc1Cl (centres unmarked) [Example 114, 1-[9-Chloro-1-(2,4-dichlorophenyl)-1,2,3,4-tetrahydropyrimido[1,2-a]benzimidazol-6-yl]butan-1-ol], the melting point is reported as 220 to 221 °C and the IC50 [1] is reported as < 1000 nM.
In the case of CCOC(CC)c1ccc(Cl)c2nc3n(c12)CCCN3c1ccc(Cl)cc1Cl (centres unmarked) [Example 116, 9-Chloro-1-(2,4-dichlorophenyl)-6-(1-ethoxypropyl)-1,2,3,4-tetrahydropyrimido[1,2-a]benzimidazole], the melting point is reported as 108 to 110 °C and the IC50 [1] is reported as < 1000 nM.
With COC(c1ccc(Cl)c2nc3n(c12)CCCN3c1ccc(Cl)cc1Cl)C1CC1 (centres unmarked) [Example 117, 9-Chloro-6-[cyclopropyl(methoxy)methyl]-1-(2,4-dichlorophenyl)-1,2,3,4-tetrahydropyrimido[1,2-a]benzimidazole] the melting point was 138 to 139 °C and the IC50 [1] was < 1000 nM.
For CCCC(OC)c1ccc(Cl)c2nc3n(c12)CCCN3c1ccc(Cl)cc1Cl (centres unmarked) [Example 118, 9-Chloro-1-(2,4-dichlorophenyl)-6-(1-methoxybutyl)-1,2,3,4-tetrahydropyrimido[1,2-a]benzimidazole], the melting point was 139 to 140 °C and the IC50 [1] was < 1000 nM.
In the case of CC/C(=N/OC)c1ccc(Cl)c2nc3n(c12)CCCN3c1ccc(Cl)cc1Cl [Example 122, (1Z)-1-[9-Chloro-1-(2,4-dichlorophenyl)-1,2,3,4-tetrahydropyrimido[1,2-a]benzimidazol-6-yl]propan-1-one O-methyloxime], the melting point is reported as 144 to 145 °C and the IC50 [1] is reported as < 1000 nM.
For CCO/N=C(/CC)c1ccc(Cl)c2nc3n(c12)CCCN3c1ccc(Cl)cc1Cl [Example 124, (1Z)-1-[9-Chloro-1-(2,4-dichlorophenyl)-1,2,3,4-tetrahydropyrimido[1,2-a]benzimidazol-6-yl]propan-1-one O-ethyloxime], the melting point was 140 to 141 °C and the IC50 [1] was < 1000 nM.
In the case of CCC(O)(CC)c1ccc(Cl)c2nc3n(c12)CCCN3c1ccc(Cl)cc1C(F)(F)F [Example 128, 3-{9-Chloro-1-[4-chloro-2-(trifluoromethyl)phenyl]-1,2,3,4-tetrahydropyrimido[1,2-a]benzimidazol-6-yl}pentan-3-ol], the melting point is reported as 178 to 180 °C and the IC50 [1] is reported as < 1000 nM.
In the case of CCCC(O)(CCC)c1ccc(Cl)c2nc3n(c12)CCCN3c1ccc(Cl)cc1C(F)(F)F [Example 129, 4-{9-Chloro-1-[4-chloro-2-(trifluoromethyl)phenyl]-1,2,3,4-tetrahydropyrimido[1,2-a]benzimidazol-6-yl}heptan-4-ol], the melting point is reported as 200 to 202 °C and the IC50 [1] is reported as < 1000 nM.
For CCC(CC)(OC)c1ccc(Cl)c2nc3n(c12)CCCN3c1ccc(Cl)cc1C(F)(F)F [Example 130, 9-Chloro-1-[4-chloro-2-(trifluoromethyl)phenyl]-6-(1-ethyl-1-methoxypropyl)-1,2,3,4-tetrahydropyrimido[1,2-a]benzimidazole], the melting point was 172 to 173 °C and the IC50 [1] was < 1000 nM.
In the case of CCC(O)c1ccc(Cl)c2nc3n(c12)CCCN3c1ccc(Cl)cc1C(F)(F)F (centres unmarked) [Example 131, 1-{9-Chloro-1-[4-chloro-2-(trifluoromethyl)phenyl]-1,2,3,4-tetrahydropyrimido[1,2-a]benzimidazol-6-yl}propan-1-ol], the melting point is reported as 220 to 222 °C and the IC50 [1] is reported as < 1000 nM.
In the case of OC(c1ccc(Cl)c2nc3n(c12)CCCN3c1ccc(Cl)cc1C(F)(F)F)C1CC1 (centres unmarked) [Example 132, {9-Chloro-1-[4-chloro-2-(trifluoromethyl)phenyl]-1,2,3,4-tetrahydropyrimido[1,2-a]benzimidazol-6-yl}(cyclopropyl)methanol], the melting point is reported as 224 to 225 °C and the IC50 [1] is reported as < 1000 nM.
In the case of CCC(OC)c1ccc(Cl)c2nc3n(c12)CCCN3c1ccc(Cl)cc1C(F)(F)F (centres unmarked) [Example 133, 9-Chloro-1-[4-chloro-2-(trifluoromethyl)phenyl]-6-(1-methoxypropyl)-1,2,3,4-tetrahydropyrimido[1,2-a]benzimidazole], the melting point is reported as 202 to 203 °C and the IC50 [1] is reported as < 1000 nM.
In the case of COC(c1ccc(Cl)c2nc3n(c12)CCCN3c1ccc(Cl)cc1C(F)(F)F)C1CC1 (centres unmarked) [Example 134, 9-Chloro-1-[4-chloro-2-(trifluoromethyl)phenyl]-6-[cyclopropyl(methoxy)methyl]-1,2,3,4-tetrahydropyrimido[1,2-a]benzimidazole], the melting point is reported as 208 to 209 °C and the IC50 [1] is reported as < 1000 nM.
In the case of Cc1cc(Cl)cc(Cl)c1N1CCCn2c1nc1c(Cl)ccc(C(O)(C3CC3)C3CC3)c12 [Example 138, [9-Chloro-1-(2,4-dichloro-6-methylphenyl)-1,2,3,4-tetrahydropyrimido[1,2-a]benzimidazol-6-yl](dicyclopropyl)methanol], the melting point is reported as 210 to 212 °C and the IC50 [1] is reported as < 1000 nM.
For CCCC(O)(CCC)c1ccc(Cl)c2nc3n(c12)CCCN3c1c(C)cc(Cl)cc1Cl [Example 139, 4-[9-Chloro-1-(2,4-dichloro-6-methylphenyl)-1,2,3,4-tetrahydropyrimido[1,2-a]benzimidazol-6-yl]heptan-4-ol], the melting point was 176 to 178 °C and the IC50 [1] was < 1000 nM.
In the case of CCCC(OC)c1ccc(Cl)c2nc3n(c12)CCCN3c1c(C)cc(Cl)cc1Cl (centres unmarked) [Example 141, 9-Chloro-1-(2,4-dichloro-6-methylphenyl)-6-(1-methoxybutyl)-1,2,3,4-tetrahydropyrimido[1,2-a]benzimidazole], the melting point is reported as 151 to 152 °C and the IC50 [1] is reported as < 1000 nM.
In the case of CCC(CO)c1ccc(Cl)c2nc3n(c12)CCCN3c1ccc(Cl)cc1Cl (centres unmarked) [Example 147, 2-[9-Chloro-1-(2,4-dichlorophenyl)-1,2,3,4-tetrahydropyrimido[1,2-a]benzimidazol-6-yl]butan-1-ol], the melting point is reported as 162 to 164 °C and the IC50 [1] is reported as < 1000 nM.
In the case of CC(C)(CO)c1ccc(Cl)c2nc3n(c12)CCCN3c1ccc(Cl)cc1Cl [Example 148, 2-[9-Chloro-1-(2,4-dichlorophenyl)-1,2,3,4-tetrahydropyrimido[1,2-a]benzimidazol-6-yl]-2-methylpropan-1-ol], the melting point is reported as 176 to 177 °C and the IC50 [1] is reported as < 1000 nM.
In the case of CCC(COC)c1ccc(Cl)c2nc3n(c12)CCCN3c1ccc(Cl)cc1Cl (centres unmarked) [Example 149, 9-Chloro-1-(2,4-dichlorophenyl)-6-[1-(methoxymethyl)propyl]-1,2,3,4-tetrahydropyrimido[1,2-a]benzimidazole], the melting point is reported as 130 to 131 °C and the IC50 [1] is reported as < 1000 nM.
For COCC(C)(C)c1ccc(Cl)c2nc3n(c12)CCCN3c1ccc(Cl)cc1Cl [Example 150, 9-Chloro-1-(2,4-dichlorophenyl)-6-(2-methoxy-1,1-dimethylethyl)-1,2,3,4-tetrahydropyrimido[1,2-a]benzimidazole], the melting point was 188 to 190 °C and the IC50 [1] was < 1000 nM.
For CCC(OC(C)=O)c1ccc(Cl)c2nc3n(c12)CCCN3c1cnc(N(C)C)cc1C (centres unmarked) [Example 155, 1-{9-Chloro-1-[6-(dimethylamino)-4-methylpyridin-3-yl]-1,2,3,4-tetrahydropyrimido[1,2-a]benzimidazol-6-yl}propyl acetate], the melting point was 159 to 160 °C and the IC50 [1] was < 1000 nM.
In the case of CCOC(CC)c1ccc(Cl)c2nc3n(c12)CCCN3c1cnc(N(C)C)cc1C (centres unmarked) [Example 156, 5-[9-Chloro-6-(1-ethoxypropyl)-3,4-dihydropyrimido[1,2-a]benzimidazol-1(2H)-yl]-N,N,4-trimethylpyridin-2-amine], the melting point is reported as 179 to 180 °C and the IC50 [1] is reported as < 1000 nM.
For CCC(OC(C)=O)c1ccc(Cl)c2nc3n(c12)CCCN3c1ccc(N(C)C)nc1C (centres unmarked) [Example 166, 1-{9-Chloro-1-[6-(dimethylamino)-2-methylpyridin-3-yl]-1,2,3,4-tetrahydropyrimido[1,2-a]benzimidazol-6-yl}propyl acetate], the melting point was 165 to 166 °C and the IC50 [1] was < 1000 nM.
For CCC(OCC(F)(F)F)c1ccc(Cl)c2nc3n(c12)CCCN3c1ccc(N(C)C)nc1C (centres unmarked) [Example 167, 5-{9-Chloro-6-[1-(2,2,2-trifluoroethoxy)propyl]-3,4-dihydropyrimido[1,2-a]benzimidazol-1(2H)-yl}-N,N,6-trimethylpyridin-2-amine], the melting point was 144 to 146 °C and the IC50 [1] was < 1000 nM.
For CCC(OC(C)=O)c1ccc(Cl)c2nc3n(c12)CCCN3c1ncc(Cl)cc1Cl (centres unmarked) [Example 171, 1-[9-Chloro-1-(3,5-dichloropyridin-2-yl)-1,2,3,4-tetrahydropyrimido[1,2-a]benzimidazol-6-yl]propyl acetate], the melting point was 157 to 159 °C and the IC50 [1] was < 1000 nM.
